According to ChEMBL document CHEMBL1145464, “Modeling the combination of amphotericin B, micafungin, and nikkomycin Z against Aspergillus fumigatus in vitro using a novel response surface paradigm” (2007):
Converted amounts (≈) assume the structure as drawn. *1 amine or outer side, *2 acyl side, *3 side chain or, on linkers, in order; H or OH if unused. Where a SMILES comes first, the peptide text is derived from it. Bridges are numbered along the chain shown (N, C = ends). [ ]: non-standard residue; d: D form. The star is where a group is joined. hTyr(3S-OH,4S-OH,3'-OSO3H) = N[C@H](C(=O)O)[C@H](O)[C@@H](O)c1ccc(O)c(OS(=O)(=O)O)c1; Orn(4R-OH,5R-OH) = O=C([C@H](C[C@@H](O)[C@@H](O)N[*:3])N[*:1])[*:2]; Pro(3S-OH,4S-Me) = C[C@H]1CN[C@H](C(=O)O)[C@H]1O; X1 = CCCCCOc1ccc(-c2cc(-c3ccc(C(=O)*)cc3)no2)cc1; Gln(3R-OH) = NC(=O)C[C@@H](O)[C@H](N)C(=O)O; Hyp = O=C(O)[C@@H]1C[C@@H](O)CN1

Tests used:
[1] = test system: Aspergillus fumigatus; test: Antifungal activity against Aspergillus fumigatus isolate after 24 hrs by CLSI method
[2] = test system: Aspergillus fumigatus; test: Antifungal activity against Aspergillus fumigatus isolate after 48 hrs by CLSI method

| MIC [1] | MIC [2] | Structure (SMILES) |
| --- | --- | --- |
| 64 µg/mL (≈ 129 µM) | 128 µg/mL (≈ 258 µM) | C[C@@H]([C@H](N)C(=O)N[C@H](C(=O)O)[C@H]1O[C@@H](n2ccc(=O)[nH]c2=O)[C@H](O)[C@@H]1O)[C@H](O)c1ccc(O)cn1 [NIKKOMYCIN] |
| ≤ 0.03 µg/mL | ≤ 0.03 µg/mL | CCCCCOc1ccc(-c2cc(-c3ccc(C(=O)N[C@H]4C[C@@H](O)[C@@H](O)NC(=O)[C@@H]5[C@@H](O)[C@@H](C)CN5C(=O)[C@H]([C@H](O)CC(N)=O)NC(=O)[C@H]([C@H](O)[C@@H](O)c5ccc(O)c(OS(=O)(=O)O)c5)NC(=O)[C@@H]5C[C@@H](O)CN5C(=O)[C@H]([C@@H](C)O)NC4=O)cc3)no2)cc1 [MICAFUNGIN] (X1-[Orn(4R-OH,5R-OH)]T[Hyp][hTyr(3S-OH,4S-OH,3'-OSO3H)][Gln(3R-OH)][Pro(3S-OH,4S-Me)]; lactam 1-C) |

| Structure (SMILES) | MIC [1] | MIC [2] |
| --- | --- | --- |
| C[C@@H]1[C@H](O)[C@@H](C)/C=C/C=C/C=C/C=C/C=C/C=C/C=C/[C@H](O[C@@H]2O[C@H](C)[C@@H](O)[C@H](N)[C@@H]2O)C[C@@H]2O[C@](O)(C[C@@H](O)C[C@@H](O)[C@H](O)CC[C@@H](O)C[C@@H](O)CC(=O)O[C@H]1C)C[C@H](O)[C@H]2C(=O)O (stereo in doubt) [AMPHOTERICIN B] | 0.5 µg/mL (≈ 0.541 µM) | 0.5 µg/mL (≈ 0.541 µM) |
